For data set [1] the following is noted: 20° C.; cited from earlier work.
The conditions of data set [2]: cited from earlier work.
The test system of the next data set is serotonin receptors. As to conditions: rank among receptor classes; cited from earlier work.
For a further data set, the system named is muscarinic receptors. As to conditions: cited from earlier work.
The nature of data set [3]: Solubility of asenapine maleate in a variety of solvents. As to conditions: organic solvent or mixture, read-out: solubility of asenapine maleate, Concentration. The data set is classed as physicochemical. As to the method:
The asenapine or a pharmaceutically acceptable salt thereof is dissolved in the organic phase or dispersed as a solid in the organic phase. In order to effectively dissolve the asenapine or a pharmaceutically acceptable salt thereof in the organic phase, a solution of the active principle in a solvent S2 can be provided, and this solution can be combined with the solution of the polymer in the organic solvent S1. It will be understood that, in this case, the solvents S1 and S2 should be different solvents. It is also possible to add the active principle to the solvent S2 in an amount that only a part of it is dissolved in S2, and a part of it remains dispersed as a solid in the solvent S2. Using the process described herein, the active principle can also be encapsulated/embedded in the polymer at a high efficiency in this case. […] Nevertheless, the following table summarizes the solubility of asenapine maleate in a variety of solvents.

Counter-ions that a name gives are not always drawn. Like-named read-outs stand apart in the source and are kept apart here.

As to `CC(C)=O` [acetone], the solubility in water result in data set [1] is given as “soluble”.
By bioavailability is commonly meant the share of a dose that reaches the circulation, judged against a reference dose that is usually intravenous. Turning to `CN1CC2c3ccccc3Oc3ccc(Cl)cc3C2C1` (stereo not drawn) [asenapine, trans-5-chloro-2,3,3a,12b-tetrahydro-2-methyl-1-H-dibenz[2,3:6,7]oxepino[4,5-c]pyrrole], the bioavailability in data set [2] (oral formulations) was 2%; in data set [2] (sublingual tablets) it was 35%. Also, the “affinity for blocking serotonin receptors” value in the data set on serotonin receptors was “highest affinity”. Also, the “affinity for muscarinic receptors” value in the data set on muscarinic receptors is listed as “minimal affinity”.
With `CN1CC2c3ccccc3Oc3ccc(Cl)cc3C2C1` (stereo not shown) [asenapine maleate], the solubility in data set [3] (DMSO) is 700 mg/mL; in data set [3] (THF), 100 mg/mL; in data set [3] (solvent EMK) it was 50 mg/mL; in data set [3] (solvent NMP) it was 700 mg/mL; in data set [3] (solvent acetone) it was 67 mg/mL; in data set [3] (solvent benzyl alcohol), 500 mg/mL. In addition, the solubility in data set [3] (solvent benzyl benzoate) worked out at 7 mg/mL; in data set [3] (solvent dimethycarbonate) it was 7 mg/mL; in data set [3] (solvent dimethylacetamide) it was 500 mg/mL; in data set [3] (solvent ethanol), 100 mg/mL; in data set [3] (solvent ethyl acetate), 10 mg/mL; in data set [3] (solvent ethyl benzoate) it was 10 mg/mL. The solubility in data set [3] (solvent ethyl formate) came out at 100 mg/mL; in data set [3] (solvent glycofurol), 270 mg/mL; in data set [3] (solvent isopropanol), 7 mg/mL; in data set [3] (solvent isopropyl acetate) it was 9 mg/mL; in data set [3] (solvent isopropyl formate), 100 mg/mL; in data set [3] (solvent methyl acetate), 25 mg/mL. In data set [3] (solvent methyl benzoate), the solubility was 20 mg/mL.
glycofurol: the solubility in water entry in data set [1] was “soluble”.

Source of the values: patent publication US20170231957A1, “INJECTABLE FORMULATIONS OF ASENAPINE” (ALRISE Biosystems GmbH, priority 2014, published 2017).
